The record followed here is patent US8592469B2, “Diazonamide analogs” (Joyant Pharmaceuticals, Inc., priority 2012, dated 2013).

Some results are limits rather than exact numbers.

One assay relates to A2058 cells. Description: Cell viability assay (Cell-Titer-Glo) in A2058 cells. It is filed as cell-based. The settings on record: Homo sapiens, 48 hour treatment, test compounds 1 nM to 1 μM. Here is the method:
(§1) Cell viability assays were run using standard protocols known to those of skill in art. Cells were plated in 96 well plates at the density of 3,000-10,000 cells per well. Twenty four hours later, cells were treated with increasing concentration of test compounds (1 nM to 1 μM). After another 48 hour, cell survival was measured using Cell-Titer-Glo® reagent (Promega) following the protocol provided by the manufacture. The IC50 value was determined as the concentration of test compound that kills 50% of the cell population.
(§2) Cell viability data generated according to the protocol described above was generated for representative compounds in A2058 and U937 cells. The compounds shown in Table 1 were prepared by the methods described herein for structurally similar compounds. The reference compound was a synthetic diazonamide analog having the structure: […]

The subject of the next assay is U937 cells. Description: Cell viability assay (Cell-Titer-Glo) in U937 cells. The format is cell-based. The settings on record: Homo sapiens, U-937, 48 hour treatment, test compounds 1 nM to 1 μM. Here is the method:
as §1, §2

On to `CC(C)[C@H](O)C(=O)NC1Cc2ccc3c(c2)C2(C4=C(c5nc(CNS(C)(=O)=O)co5)N=C(O4)[C@H](C(C)C)NC1=O)c1ccccc1N[C@H]2O3` (stereo partly drawn) [Compound 35], for which the IC50 with A2058 cells worked out at 151 nM; in the assay with U937 cells, 198 nM.

In the case of `CC(C)[C@H](O)C(=O)N[C@H]1Cc2ccc3c(c2)C2(C4=C(c5nc(CNS(=O)(=O)c6ccccc6)co5)N=C(O4)[C@H](C(C)C)NC1=O)c1ccccc1N[C@H]2O3` (stereo partly drawn) [Compound 36], the half-maximal inhibitory concentration (IC50) stood at 194 nM in the assay with A2058 cells and 209 nM in the assay with U937 cells.

`COC(=O)Nc1coc(-c2nc3oc2C24c5ccccc5N[C@H]2Oc2ccc(cc24)CC(NC(=O)[C@@H](O)C(C)C)C(=O)N[C@H]3C(C)C)n1` (stereo partly drawn) [Compound 37]: the results for the IC50 with A2058 cells and in the assay on U937 cells were 235 nM and 178 nM, respectively.

With `CC(=O)Nc1oc(-c2nc3oc2C24c5ccccc5N[C@H]2Oc2ccc(cc24)CC(NC(=O)[C@@H](O)C(C)C)C(=O)N[C@H]3C(C)C)nc1C#N` (stereo partly drawn) [Compound 38], the IC50 in the assay with A2058 cells and with U937 cells was above 1000 nM each time.

`CC(C)[C@H](O)C(=O)N[C@H]1Cc2ccc3c(c2)C2(C4=C(c5nc(C#N)co5)N=C(O4)[C@H](C(C)C)NC1=O)c1ccccc1N[C@H]2O3` (stereo partly drawn) [Compound 39]: the IC50 in the assay with A2058 cells is 23 nM; in the assay with U937 cells it was 71 nM.

Turning to `Cc1oc(-c2nc3oc2[C@@]24c5ccccc5NC2Oc2ccc(cc24)CC(NC(=O)[C@@H](O)C(C)C)C(=O)N[C@H]3C(C)C)nc1C#N` (stereo partly drawn) [Compound 40], the IC50 turned out to be 182 nM in the assay on A2058 cells and 210 nM with U937 cells.

As for `CC(C)[C@H](O)C(=O)NC1Cc2ccc3c(c2)C2(C4=C(c5nc(C6OCCCO6)co5)N=C(O4)[C@H](C(C)C)NC1=O)c1ccccc1N[C@H]2O3` (stereo partly drawn) [Compound 41], the IC50 in the assay with A2058 cells and with U937 cells was 65 nM throughout.

As to `CC(C)[C@H](O)C(=O)NC1Cc2ccc3c(c2)C2(C4=C(c5nc(C6OCCO6)co5)N=C(O4)[C@H](C(C)C)NC1=O)c1ccccc1N[C@H]2O3` (stereo partly drawn) [Compound 42], the IC50 was found to be 49 nM with A2058 cells and 43 nM in the assay with U937 cells.

Consider `CC(C)[C@H](O)C(=O)N[C@H]1Cc2ccc3c(c2)C2(C4=C(c5nc(C6=NCCO6)co5)N=C(O4)[C@H](C(C)C)NC1=O)c1ccccc1N[C@H]2O3` (stereo partly drawn) [Compound 43], for which the IC50 stood at 22 nM with A2058 cells and 19 nM in the assay with U937 cells.

In the case of `CC(C)[C@H](O)C(=O)NC1Cc2ccc3c(c2)[C@]2(C4=C(c5nc(-c6nnn[nH]6)co5)N=C(O4)[C@H](C(C)C)NC1=O)c1ccccc1NC2O3` (stereo partly drawn) [Compound 44], the IC50 in the assay on A2058 cells and in the assay on U937 cells was above 1000 nM each time.

For the compound `CC(C)[C@H](O)C(=O)NC1Cc2ccc3c(c2)[C@]2(C4=C(c5nc(-c6ncc[nH]6)co5)N=C(O4)[C@H](C(C)C)NC1=O)c1ccccc1NC2O3` (stereo partly drawn) [Compound 45], the IC50 came to 589 nM in the assay with A2058 cells and 318 nM in the assay with U937 cells.

For the compound `Cc1nc(-c2coc(-c3nc4oc3[C@@]35c6ccccc6NC3Oc3ccc(cc35)C[C@H](NC(=O)[C@@H](O)C(C)C)C(=O)N[C@H]4C(C)C)n2)no1` (stereo partly drawn) [Compound 46], the IC50 is 49 nM with A2058 cells and 76.9 nM in the assay on U937 cells.

In the case of `Cc1noc(-c2coc(-c3nc4oc3[C@@]35c6ccccc6NC3Oc3ccc(cc35)C[C@H](NC(=O)[C@@H](O)C(C)C)C(=O)N[C@H]4C(C)(C)C)n2)n1` (stereo partly drawn) [Compound 47], the IC50 was 7.06 nM in the assay on A2058 cells and 14.2 nM with U937 cells.

Take `Cc1nnc(-c2coc(-c3nc4oc3[C@@]35c6ccccc6NC3Oc3ccc(cc35)C[C@H](NC(=O)[C@@H](O)C(C)C)C(=O)N[C@H]4C(C)(C)C)n2)o1` (stereo partly drawn) [Compound 48]: the IC50 stood at 6.11 nM with A2058 cells and 6.34 nM in the assay with U937 cells.

Turning to `COC(=O)c1coc(-c2nc3oc2C24c5ccccc5NC2Oc2ccc(cc24)C[C@H](NC(=O)[C@@H](O)C(C)C)C(=O)N[C@H]3CC(C)C)n1` (stereo partly drawn) [Compound 49], the IC50 in the assay with A2058 cells is above 1000 nM; with U937 cells, 223 nM.

Take `COC(=O)c1coc(-c2nc3oc2C24c5ccccc5NC2Oc2ccc(cc24)C[C@H](NC(=O)[C@@H](O)C(C)C)C(=O)N[C@H]3C(C)(C)C)n1` (stereo partly drawn) [Compound 50]: the IC50 amounted to 53 nM in the assay with A2058 cells and 12 nM in the assay with U937 cells.

On to `COC(=O)c1coc(-c2nc3oc2C24c5ccccc5NC2Oc2ccc(cc24)C[C@H](NC(=O)[C@@H](O)C(C)C)C(=O)N[C@H]3Cc2ccccc2)n1` (stereo partly drawn) [Compound 51], for which the IC50 in the assay with A2058 cells and in the assay with U937 cells was above 1000 nM in each case.

As to `CCC[C@@H]1NC(=O)[C@@H](NC(=O)[C@@H](O)C(C)C)Cc2ccc3c(c2)C2(C4=C(c5nc(C(=O)OC)co5)N=C1O4)c1ccccc1NC2O3` (stereo partly drawn) [Compound 52], the figures for the IC50 with A2058 cells and in the assay with U937 cells were 257 nM and 71 nM, respectively.

`COC(=O)c1coc(-c2nc3oc2[C@@]24c5ccccc5NC2Oc2ccc(cc24)C[C@H](NC(=O)[C@@H](O)C(C)C)C(=O)NC3)n1` (stereo partly drawn) [Compound 53]: the IC50 in the assay on A2058 cells and with U937 cells was above 1000 nM throughout.

As for `COC(=O)c1coc(-c2nc3oc2[C@@]24c5ccccc5NC2Oc2ccc(cc24)C[C@H](NC(=O)[C@@H](O)C(C)C)C2=NC3CO2)n1` (stereo partly drawn) [Compound 54], the IC50 with A2058 cells and in the assay on U937 cells was above 1000 nM each time.

As to `CC(C)[C@H](O)C(=O)N[C@H]1Cc2ccc3c(c2)[C@]2(C4=C(c5nc(CO)co5)N=C(O4)[C@H](C)NC1=O)c1ccccc1NC2O3` (stereo partly drawn) [Compound 55], the IC50 in the assay on A2058 cells and with U937 cells was above 1000 nM each time.

`COC(=O)c1coc(-c2nc3oc2[C@@]24c5ccccc5NC2Oc2ccc(cc24)C[C@H](NC(=O)[C@@H](O)C(C)C)C(=O)N[C@H]3C)n1` (stereo partly drawn) [Compound 56]: the IC50 in the assay with A2058 cells came out at 968 nM; in the assay on U937 cells, 588 nM.

For `CC(C)[C@H](O)C(=O)N[C@H]1Cc2ccc3c(c2)[C@]2(C4=C(c5nc(CO)co5)N=C(O4)[C@H](C(C)(C)C)NC1=O)c1ccccc1N[C@@H]2O3` [Compound 57], the results for the IC50 in the assay with A2058 cells and in the assay with U937 cells were 8.3 nM and 5.3 nM, respectively.

As for `COC(=O)c1coc(-c2nc3oc2[C@@]24c5ccccc5NC2Oc2ccc(cc24)C[C@H](NC(=O)[C@@H](O)C(C)C)C(=O)N[C@H]3C2CCCCC2)n1` (stereo partly drawn) [Compound 58], the IC50 is above 1000 nM in the assay with A2058 cells and 445 nM in the assay with U937 cells.

As for `CC(C)[C@H](O)C(=O)N[C@H]1Cc2ccc3c(c2)[C@]2(C4=C(c5nc(CO)co5)N=C(O4)[C@H](C4CCCCC4)NC1=O)c1ccccc1NC2O3` (stereo partly drawn) [Compound 60], the 50% inhibitory concentration (IC50) was above 1000 nM with A2058 cells and 795 nM with U937 cells.

Turning to `COC(=O)c1coc(-c2coc([C@@H]3CCCN3C(=O)[C@H](Cc3ccc4c(c3)[C@@H]3c5ccccc5NC3O4)NC(=O)[C@@H](O)C(C)C)n2)n1` (stereo partly drawn) [Compound 61], the IC50 in the assay on A2058 cells is above 1000 nM; in the assay on U937 cells, 761 nM.

For the compound `CC(C)[C@H](O)C(=O)N[C@H]1Cc2ccc3c(c2)C2(C4=C(c5nc(C#N)co5)N=C(O4)[C@H](C(C)(C)C)NC1=O)c1ccccc1N[C@H]2O3` (stereo partly drawn) [Compound 62], the figures for the IC50 with A2058 cells and in the assay on U937 cells were 2.54 nM and 15.6 nM, respectively.

On to `CCC(O)(CC)C(=O)N[C@H]1Cc2ccc3c(c2)C2(C4=C(c5nc(C(=O)OC)co5)N=C(O4)[C@H](C(C)(C)C)NC1=O)c1ccccc1N[C@H]2O3` (stereo partly drawn) [Compound 63], for which the IC50 in the assay on A2058 cells worked out at 15.5 nM; in the assay with U937 cells, 1.97 nM.

Take `CCC(O)(CC)C(=O)N[C@H]1Cc2ccc3c(c2)C2(C4=C(c5nc(CO)co5)N=C(O4)[C@H](C(C)(C)C)NC1=O)c1ccccc1N[C@H]2O3` (stereo partly drawn) [Compound 64]: the IC50 amounted to 43.2 nM with A2058 cells and 45.9 nM in the assay on U937 cells.

With `CCC(O)(CC)C(=O)N[C@H]1Cc2ccc3c(c2)C2(C4=C(c5nc(C#N)co5)N=C(O4)[C@H](C(C)(C)C)NC1=O)c1ccccc1N[C@H]2O3` (stereo partly drawn) [Compound 65], the IC50 with A2058 cells is 16.8 nM; in the assay on U937 cells, 67.6 nM.

Take `CC(C)=CC(=O)N[C@H]1Cc2ccc3c(c2)C2(C4=C(c5nc(C#N)co5)N=C(O4)[C@H](C(C)(C)C)NC1=O)c1ccccc1N[C@H]2O3` (stereo partly drawn) [Compound 66]: the IC50 in the assay with A2058 cells stood at 186 nM; in the assay on U937 cells it was 215 nM.

In the case of `CC(C)C[C@H](O)C(=O)NC1Cc2ccc3c(c2)C2(C4=C(c5nc(C#N)co5)N=C(O4)[C@H](C(C)(C)C)NC1=O)c1ccccc1N[C@H]2O3` (stereo partly drawn) [Compound 67], the results for the IC50 in the assay with A2058 cells and in the assay with U937 cells were 35.8 nM and 89.7 nM, respectively.

For `CCC(C)(O)C(=O)N[C@H]1Cc2ccc3c(c2)C2(C4=C(c5nc(C#N)co5)N=C(O4)[C@H](C(C)(C)C)NC1=O)c1ccccc1N[C@H]2O3` (stereo partly drawn) [Compound 68], the IC50 with A2058 cells was 21.1 nM; in the assay with U937 cells it was 59.6 nM.

`CCC(C)(C)C(=O)NC1Cc2ccc3c(c2)C2(C4=C(c5nc(C#N)co5)N=C(O4)[C@H](C(C)(C)C)NC1=O)c1ccccc1N[C@H]2O3` (stereo partly drawn) [Compound 69]: the IC50 in the assay on A2058 cells was 95.5 nM; in the assay with U937 cells, 225 nM.

For `COC(=O)c1coc(-c2nc3oc2[C@@]24c5ccccc5NC2Oc2c(Cl)cc(cc24)CC(NC(=O)[C@@H](O)C(C)C)C(=O)N[C@H]3C(C)C)n1` (stereo partly drawn) [Compound 70], the IC50 was 77 nM in the assay on A2058 cells and 15 nM in the assay with U937 cells.

On to `COC(=O)c1coc(-c2nc3oc2[C@@]24c5ccccc5NC2Oc2c(F)cc(cc24)CC(NC(=O)[C@@H](O)C(C)C)C(=O)N[C@H]3C(C)C)n1` (stereo partly drawn) [Compound 71], for which the IC50 in the assay with A2058 cells was found to be 67 nM; in the assay on U937 cells, 9.2 nM.

For `CCCCCCc1cc2cc3c1O[C@@H]1Nc4ccccc4C31c1oc(nc1-c1nc(C(=O)OC)co1)[C@H](C(C)C)NC(=O)[C@@H](NC(=O)[C@@H](O)C(C)C)C2` (stereo partly drawn) [Compound 72], the IC50 was above 300 nM in the assay with A2058 cells and 213 nM with U937 cells.

As for `COC(=O)c1coc(-c2nc3oc2C24c5ccccc5N[C@H]2Oc2ccc(cc24)CC[C@H](NC(=O)[C@@H](O)C(C)C)C(=O)N[C@H]3C(C)(C)C)n1` (stereo partly drawn) [Compound 73], the IC50 with A2058 cells and in the assay on U937 cells was below 0.1 nM throughout.

With `COC(=O)c1coc(-c2nc3oc2[C@]24c5ccccc5NC2Oc2ccc(cc24)CC[C@H](NC(=O)[C@@H](O)C(C)C)C(=O)N[C@H]3C(C)(C)C)n1` (stereo partly drawn) [Compound 74], the IC50 in the assay with A2058 cells and with U937 cells was above 100 nM throughout.
